US20230331815A1 (priority 2020, published 2023)
pIC50: −log10 of the molar value.

Key:
[1] = test system: SARS-CoV-2; conditions: cited from earlier work
[2] = test system: HSPG receptor; assay: hLF cell membrane localization, confocal microscopy of VeroE6/T cells; assay type: cell-based, African green monkey; conditions: co-incubation of hLF and heparin
Method: To visualize cell membrane localization of human lactoferrin (hLF), VeroE6/T cells (0.75×10^5 cells/well) were chilled at 4° C. for 1 hr, incubated with 2.5 µM of hLF. Cells were washed, fixed using 4% PFA (Invitrogen), stained with anti-hLF antibody, and fluorescent image was taken under confocal microscope (FIG. 10, middle row). Cell nuclei were visualized using DAPI (FIG. 10, bottom row). To visualize the cell surface and nuclei at the same time, the confocal images above (i.e., FIG. 10, middle and bottom rows) were merged and are presented in FIG. 10, top row. […] To see the effect of heparin on the binding of hLF to the cell surface (specifically the HSPG receptor), cells were co-incubated with hLF and heparin (H), and the confocal image was taken (FIG. 10, right column).

In the case of Ivermectin, the pIC50 [1] is given as 5.55 to 5.66.

In the case of heparin [reference compound], the “effect on binding of hLF to the cell surface HSPG receptor” value [2] was “inhibited”.
